Source: patent publication US5268465A, “Purification and molecular cloning of nitric oxide synthase” (The Johns Hopkins University, priority 1991, dated 1993)
One block for each molecule: values may come before it.

Experiments:
NO synthase [1] = molecular target: T1, NO synthase (Rattus norvegicus, UniProt P0DP29+P29476); assay: NO synthase activity, conversion of [3H]arginine to [3H]citrulline, purified enzyme; assay type: biochemical; details: for IC50: read-out: Calmodulin antagonists, IC50; for EC50: read-out: EC50 for enhancement/stimulation of enzyme activity
T1 sequence (P29476 whole entry, one chain of several): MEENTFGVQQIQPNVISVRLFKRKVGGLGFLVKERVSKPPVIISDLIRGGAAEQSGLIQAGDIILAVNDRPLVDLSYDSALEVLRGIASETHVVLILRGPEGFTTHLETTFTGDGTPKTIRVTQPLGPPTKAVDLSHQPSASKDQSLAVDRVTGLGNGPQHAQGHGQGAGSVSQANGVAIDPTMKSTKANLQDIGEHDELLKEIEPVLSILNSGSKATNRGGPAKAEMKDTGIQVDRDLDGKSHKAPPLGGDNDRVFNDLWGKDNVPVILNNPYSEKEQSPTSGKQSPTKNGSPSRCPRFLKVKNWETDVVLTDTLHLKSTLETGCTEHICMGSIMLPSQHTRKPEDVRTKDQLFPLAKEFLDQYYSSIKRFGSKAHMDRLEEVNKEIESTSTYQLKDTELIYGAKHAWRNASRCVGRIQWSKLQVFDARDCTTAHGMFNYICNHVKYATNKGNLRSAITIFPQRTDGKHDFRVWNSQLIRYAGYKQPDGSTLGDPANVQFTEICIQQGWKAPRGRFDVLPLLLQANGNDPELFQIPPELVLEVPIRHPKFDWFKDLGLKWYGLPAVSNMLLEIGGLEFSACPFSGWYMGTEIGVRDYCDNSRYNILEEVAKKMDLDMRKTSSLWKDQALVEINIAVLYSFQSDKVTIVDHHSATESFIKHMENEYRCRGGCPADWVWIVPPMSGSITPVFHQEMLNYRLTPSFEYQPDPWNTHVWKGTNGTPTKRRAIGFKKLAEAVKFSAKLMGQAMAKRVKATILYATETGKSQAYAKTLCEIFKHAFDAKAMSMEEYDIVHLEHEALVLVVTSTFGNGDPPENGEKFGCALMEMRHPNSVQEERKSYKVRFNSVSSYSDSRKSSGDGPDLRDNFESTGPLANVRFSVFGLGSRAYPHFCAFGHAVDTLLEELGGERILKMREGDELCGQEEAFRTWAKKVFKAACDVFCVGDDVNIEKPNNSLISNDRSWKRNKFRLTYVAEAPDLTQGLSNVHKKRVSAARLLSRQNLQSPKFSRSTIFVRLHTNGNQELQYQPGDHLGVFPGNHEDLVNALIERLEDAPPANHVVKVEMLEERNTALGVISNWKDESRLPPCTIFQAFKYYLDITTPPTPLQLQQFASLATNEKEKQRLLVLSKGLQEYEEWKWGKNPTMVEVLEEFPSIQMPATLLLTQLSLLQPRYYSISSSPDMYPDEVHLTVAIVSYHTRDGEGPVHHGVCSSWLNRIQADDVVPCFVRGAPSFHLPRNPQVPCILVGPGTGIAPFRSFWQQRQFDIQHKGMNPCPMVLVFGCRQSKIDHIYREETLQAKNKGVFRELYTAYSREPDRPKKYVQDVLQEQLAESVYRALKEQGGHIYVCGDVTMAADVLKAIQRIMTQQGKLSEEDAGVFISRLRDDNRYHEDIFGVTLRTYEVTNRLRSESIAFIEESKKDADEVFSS

[2] = molecular target: NO synthase activity in crude brain supernatant preparations (Rattus norvegicus, UniProt P0DP29); assay: NO synthase activity, conversion of [3H]arginine to [3H]citrulline, crude cerebellar/brain supernatant preparations; assay type: biochemical; details: crude brain supernatant preparations; read-out: IC50, inhibition of NO synthase activity
Protocol: (§1) This example describes the method by which NOS activity was assayed. […] After incubation for 5 min at 22° C., assays were terminated with 2 ml of 20 mM Hepes, pH 5.5/2 mM EDTA, and were applied to 1-ml columns of Dowex A[…]-8 (Na^+ form), which were eluted with 2 ml of water. [^3 H]Citrulline was quantified by liquid scintillation spectroscopy of the 4-ml flow-through.

[3] = molecular target: T2, NO synthase activity in crude brain supernatant preparations (Rattus norvegicus, UniProt P29476); assay: as above; assay type: biochemical
T2 construct: not recombinant
Protocol: as §1

NO synthase [4] = molecular target: T1, NO synthase; assay: Effects of varying calcium, calmodulin and NADPH on NO synthase activity; assay type: biochemical
Protocol: After incubation for 5 min at 22° C., assays were terminated with 2 ml of 20 mM Hepes, pH 5.5/2 mM EDTA, and were applied to 1-ml columns of Dowex A[…]-8 (Na^+ form), which were eluted with 2 ml of water. [^3 H]Citrulline was quantified by liquid scintillation spectroscopy of the 4-ml flow-through.

NO synthase [5] = molecular target: T3, NO synthase (Rattus norvegicus, UniProt P29476); assay: Specific activity of fractions during purification of NO synthase; assay type: biochemical; details: typical purification, repeated five times
T3 construct: Eighteen rat cerebella were homogenized; from tissue; host or cells: rat cerebella (supernatant, DEAE eluate, 2',5'-ADP agarose eluate)

NO synthase [6] = molecular target: T3, NO synthase; assay: Storage stability of NO synthase activity; assay type: physicochemical
Protocol: After incubation for 5 min at 22° C., assays were terminated with 2 ml of 20 mM Hepes, pH 5.5/2 mM EDTA, and were applied to 1-ml columns of Dowex AG502X-8 (Na^+ form), which were eluted with 2 ml of water. [^3 H]Citrulline was quantified by liquid scintillation spectroscopy of the 4-ml flow-through.
The purified enzyme is unstable. When stored at 0° C., 50% of the enzyme activity is lost in 2 hr, whereas the crude supernatant preparation loses 50% activity at 0° C. in 2 days. Stability is enhanced by storing the enzyme in bovine serum albumin (1 mg/ml)/20% (vol/vol) glycerol at -70° C. When stored in this way, the enzyme loses<50%activity in 7 days.

NO synthase [7] = molecular target: T3, NO synthase; assay: Restoration of enzyme activity of DEAE eluate fractions; assay type: biochemical
Protocol: Eighteen rat cerebella were homogenized in 100 ml of ice-cold buffer A [50 mM Tris-HCl, pH 7.4/1 mM EDTA/antipain (10 mg/liter)/leupeptin (10 mg/liter)/soybean trypsin inhibitor (10 mg/liter)/pepstatin (10 mg/liter)/chymostatin (10 mg/liter)/phenylmethylsulfonyl fluoride (100 mg/liter)], and all subsequent procedures were carried out at 4° C. The homogenate was centrifuged at 20,000×g for 15 min, and the supernatant was loaded at 2 ml/min onto a 20-ml column of diethylminoethyl (DEAE) equilibrated with buffer A. The column was washed with 50 ml of buffer A and eluted with a 100-ml linear gradient of 0-400 mM NaCl in buffer A. Fractions (2.5 ml) were assayed for enzyme activity.
In our preliminary efforts to purify NO synthase, we observed that enzymatic activity adheres to a DEAE column and can be eluted by 1M NaCl. […] Since NO formation requires Ca^2+, we speculated that calmodulin might be involved. […] NO synthase activity elutes in one sharp, major peak followed by a smaller peak of activity, which is observed reproducibly in multiple experiments.

Molecule: [Ca+2] [Ca^2+, calcium]
EC50 (NO synthase [1]): 0.2 µM
EC50 compared with crude preparations ([3]; crude preparations): the same in the pure and crude preparations
Concentration of maximal enhancement of activity (NO synthase [4]): 1 µM
Stimulation in the absence of NADPH (NO synthase [4]; absence of NADPH): fails to stimulate NO synthase activity
Activity at high Ca2+ (NO synthase [4]; concentrations exceeding 100 μM Ca2+): some reduction in activity

Molecule: NO synthase: calmodulin-dependent nitric oxide synthase purified to homogeneity from rat cerebella by DEAE and 2',5'-ADP agarose chromatography
Vmax (NO synthase [1]; Table 2): 0.96 μmol per min per mg of protein
Specific activity (NO synthase [5]): 960 nmol/mg/min
Enzyme activity lost on storage (NO synthase [6]; bovine serum albumin (1 mg/ml)/20% (vol/vol) glycerol at -70° C., 7 days): < 50%
Time to loss of 50% of the enzyme activity (NO synthase [6]; stored at 0° C.): 2 h

Molecule: Calmodulin
EC50 (NO synthase [1]): 0.01 µM
Influence of added calmodulin on enzyme activity ([3]; crude cerebellar supernatant preparations, calmodulin 1 μM): no influence on enzyme activity
Stimulation of NO synthase activity (NO synthase [4]; FIG. 2A): extremely potent stimulator of NO synthase activity
Effect of addition to DEAE eluate fractions on enzyme activity (NO synthase [7]): restores enzyme activity
Effect on stability of the enzyme (NO synthase [6]; presence of calmodulin): Stability is also enhanced

Next, values leading:

IC50 (NO synthase [1]): 70 µM
IC50 [2]: 25 µM
Molecule: NCCCCNS(=O)(=O)c1ccc2c(Cl)cccc2c1 [W-13]

IC50 (NO synthase [1]): 25 µM
IC50 [2]: 50 µM
Molecule: NCCCCCCNS(=O)(=O)c1cccc2ccccc12 [W-5]
